Test results taken from patent US5225417A, “Opioid agonist compounds” (priority 1992, dated 1993).
Counter-ions that a name gives are not always drawn. Like-named read-outs stand apart in the source and are kept apart here.

Columns and labels:
μ opioid receptor = μ opioid receptor (Rattus norvegicus, UniProt P33535); assay: Opiate Binding Assay, μ receptor (3[H]-DAMGO displacement)
δ opioid receptor = δ opioid receptor (Rattus norvegicus, UniProt P33533); assay: Opiate Binding Assay, δ receptor (3[H]-DSLET displacement); conditions: for Mean IC50 μ/δ Ratio: ratio of mean IC50 values for μ and δ opioid receptors
Chain of δ opioid receptor (P33533 whole entry): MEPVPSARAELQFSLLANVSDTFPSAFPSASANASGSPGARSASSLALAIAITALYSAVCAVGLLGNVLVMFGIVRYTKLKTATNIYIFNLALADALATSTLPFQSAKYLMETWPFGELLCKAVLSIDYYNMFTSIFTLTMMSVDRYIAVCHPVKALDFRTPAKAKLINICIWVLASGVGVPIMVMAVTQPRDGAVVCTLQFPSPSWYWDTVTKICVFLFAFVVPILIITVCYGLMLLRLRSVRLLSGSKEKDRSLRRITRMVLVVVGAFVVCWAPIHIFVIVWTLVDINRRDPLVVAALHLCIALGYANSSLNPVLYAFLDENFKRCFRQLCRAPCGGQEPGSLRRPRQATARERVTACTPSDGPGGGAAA

mice = assay: PBQ Writhing Assay; type: in vivo, Charles River male albino mice; conditions: for ED50: Mus musculus, 0.5 h
Source text: The Writhing Assay is one of the most widely-used experimental procedures for measuring the analgesic activity of different narcotic and nonnarcotic analgesic agents, and involves the continuous, chemically-induced pain of visceral origin to an animal, such as a mouse or rat. [Gyires et al., Arch. int. Pharmacodyn, 267, 131-140 (1984); C. Vander Wende et al., Fed. Proc., 15, 494 (1956); Koster et al. Fed. Proc. 18 412 (1959); and Witken et al., J. Pharmacol. exp. Ther., 133, 400-408 (1961).] Chemicals which may be used to induce this pain include phenylbenzoquinone (PBQ) and acetic acid. As a result of the chemical irritation to the animal, a characteristic stretching and writhing of the animal (dorsiflexion of the animal's back, extension of its hindlimbs and the strong contraction of its abdominal musculature) will generally occur. […] Drugs which reduce the number of writhes of the animal appear to restore the normal nociceptive threshold of the animal.
Charles River male albino mice, weighing 20 to 30 grams were used in this assay.
Thirty minutes after subcutaneous or intragastric administration to ten mice of either 10 mg or 30 mg per kilogram of body weight of a compound of the present invention ("test compound"), […] of body weight of a 0.025% w/v solution of PBQ was injected intraperitoneally into each mouse. Ten mice which were given saline in place of a test compound of the invention were used as a control group.
Five minutes later, each mouse was individually placed into a glass beaker for observation, and the number of writhes occurring during the following ten-minute period was counted.
A test compound was considered to be "active" in this assay (to have produced analgesia in a mouse) if, after the administration of the compound to the mouse, the number of writhes elicited by a mouse injected with PBQ was equal to, or less than, one-half the median number of writhes recorded for the saline-treated control group of mice that day, as described by Taber in "Predictive Value of Analgesic Assays in Mice and Rats," Advances in Biochemical Psychopharmacology, 8, 191 (1974).
The standard initial screening doses of a test compound employed in this assay were 10 and/or 30 […] for both routes of administration.

mice or rats = assay: Tail Flick Assay; type: in vivo
Source text: The "Tail Flick Assay" uses thermal pain of transient duration, and is a test in which the pain threshold of the mice or rats being analyzed has not been altered. It is useful for evaluating the ability of a compound or drug to increase the animal's pain threshold (i.e. prolong response latencies), rather than to restore normal thresholds.
The heat-induced response to the Tail Flick Assay is a reflex reaction mediated at the level of the spinal cord.
Opiate compounds having clinical efficacy as analgesics generally increase tail flick latencies. Thus, morphine and codeine are generally determined to be active in this test.
The Tail Flick Assay was performed generally in the manner described by G. Woolfe et al., "The Evaluation of the Analgesic Action of Pethidine Hydrochloride (Demerol)," J. Pharmacol. Exp. Ther., 80, 300, (1944), F. D'Amour et al., "A Method for Determining Loss of Pain Sensation," J. Pharmacol. Exp. Ther., 72, 74, 300-307 (1941), and E. Drower et al., "The Antinociceptive Effects of Prostaglandin Antagonists in the Rat," European Journal of Pharmacology, 133, 249-256 (1987).
Male Charles River albino mice and male Charles River Sprague-Dawley rats weighing 20 to 30 g and 200 to 250 g, respectively, was employed in this assay.
Tail flick response latencies (defined as the time that elapsed between the onset of a high intensity beam of light and the reflex removal of the mouse or rat's tail) was measured before (baseline) and again at fixed intervals after subcutaneous or intracerebro-ventricular administration of one of the compounds of the invention, or after the administration of saline (controls). The cut-off latencies established to prevent tissue damage in the animals are 12 seconds or 14 seconds in the mouse and rat, respectively, in the Tail Flick Assay. The significance of any increase in tail flick response latency is determined using analyses of variance.
One way analyses of variance were used to determine the significance of the effect of the compounds of the invention on response latencies.
"Activity" or "Inactivity" was determined at a particular concentration of the compound by a significant increase in tail flick latency above normal latencies.
The numbers in parentheses are calculated ED50 values.

[1] = rat forebrain membranes, 3[H]-DAMGO 2.0 nM, 37° C., pH 7.4
[2] = read-out: Mean IC50 Value, δ, rat forebrain membranes, 3[H]-DSLET 1.0 nM, 37° C., pH 7.4
[3] = sc, subcutaneous, mice, 30 min before PBQ, read-out: PBQ writhing assay ED50, S.C.

Chain of μ opioid receptor (P33535 whole entry): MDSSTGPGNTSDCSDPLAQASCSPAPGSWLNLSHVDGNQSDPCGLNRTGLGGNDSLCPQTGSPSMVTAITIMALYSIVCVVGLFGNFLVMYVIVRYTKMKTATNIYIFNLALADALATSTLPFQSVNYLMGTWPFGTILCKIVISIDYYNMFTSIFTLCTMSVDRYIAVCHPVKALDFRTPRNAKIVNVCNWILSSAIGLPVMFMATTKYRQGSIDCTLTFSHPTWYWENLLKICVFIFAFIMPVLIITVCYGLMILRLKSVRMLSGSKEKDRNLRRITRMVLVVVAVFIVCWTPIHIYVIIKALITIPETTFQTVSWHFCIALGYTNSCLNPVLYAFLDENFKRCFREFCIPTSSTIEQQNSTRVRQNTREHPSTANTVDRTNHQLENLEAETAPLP

Compound | IC50 (μ opioid receptor) | IC50 (δ opioid receptor) | Mean IC50 μ/δ Ratio (δ opioid receptor) | also measured
7-(3-Furanylmethyl)-5,6,7,8,14,14bβ-hexahydro-4,8(R,α)-methano-4bS*-benzofuro[2,3-a]pyrido [4,3-b]carbazole-1,8aβ(9H)-diol, hydrochloride [Example XIV] | – | – | – | Mean IC50 Value, μ (μ opioid receptor; [1]): inactive; IC50 (δ opioid receptor; [2]): 31.8 nM
CC(=O)Oc1ccc2c3c1O[C@H]1c4oc5ccccc5c4C[C@@]4(OC(C)=O)[C@@H](C2)N(C#N)CC[C@]314 (relative stereo) [Example I, 1,8aβ-Bis(acetyloxy)-5,6,8,8a,9,14bβ-hexahydro-4,8(R,α)-methano-4bS*-7H-bisbenzofuro [3,2-e:2',3'-g]isoquinoline-7-carbonitrile] | – | – | – | ED50 (mice; [3]): 2.4 mg/kg; PBQ writhing assay ED50, I.G. (mice; intragastric, mice, 30 min before PBQ): inactive; inhibition at 0.1 µM (δ opioid receptor; read-out: Percent Displacement, δ at 100 nM): 14%
Oc1ccc2c3c1O[C@H]1c4oc5ccccc5c4C[C@@]4(O)[C@@H](C2)NCC[C@]314 (relative stereo) [Example II, 6,7,8,14bβ-Tetrahydro-4,8(R,α)-methano-4bS*-5H-bisbenzofuro[3,2-e:2',3'-g]isoquinoline-1,8aβ(9H)-diol] | 291 nM | 6.5 nM | 45 | Percent Displacement, μ (μ opioid receptor; μ receptor, 3[H]-DAMGO 2.0 nM, test concentration not given): 2; Number of mice in 10 exhibiting inhibition of writhing, I.G. (mice; intragastric, dose not stated in table (screening doses 10 and/or 30 mpk)): 4/10; Number of mice in 10 exhibiting inhibition of writhing, S.C. (mice; subcutaneous, dose not stated in table (screening doses 10 and/or 30 mpk)): 4/10
CC(C)=CCN1CC[C@]23c4c5ccc(O)c4O[C@H]2c2oc4ccccc4c2C[C@@]3(O)[C@H]1C5 (relative stereo) [Example III, 6,7,8,14bβ-tetrahydro-7-(3-methyl-2-butenyl)-4,8 (R,α)-methano-4bS*-5H-bisbenzofuro[3,2-e:2',3'-g]isoquinoline-1,aβ(9H)-diol, monohydrochloride] | 4670 nM | 51.1 nM | 91 | –
CCOC(=O)CN1CC[C@]23c4c5ccc(O)c4O[C@H]2c2oc4ccccc4c2C[C@@]3(O)[C@H]1C5 (relative stereo) [Example IV, Ethyl 5,6,8,8a,9,14bβ-hexahydro-1,8aβ-dihydroxy-4,8(R,α)-methano-4bS*-7H-bisbenzofuro [3,2-e:2',3'-g]isoquinoline-7-acetate, hydrochloride] | > 10000 nM | 11.8 nM | > 850 | –
CO[C@@]12Cc3c(oc4ccccc34)[C@@H]3Oc4c(O)ccc5c4[C@@]31CCN(C)[C@@H]2C5 (relative stereo) [Example IX, 6,7,8,8a,9,14b-hexahydro-8aβ-methoxy-7-methyl-4,8(R,α)-methano-4bS*-5H-bisbenzofuro [3,2-e:2',3'-g]isoquinolin-1-ol, monohydrochloride] | 430 nM | 1 nM | 430 | Tail flick activity, intracerebroventricular (mice or rats; intracerebroventricular): 10.5 nmol; active dose in tail flick, intracerebroventricularly (mice or rats; intracerebroventricular): ca. 10 nmoles; Tail flick activity, subcutaneous (active at) (mice or rats; subcutaneous): > 30 mpk
CN1CC[C@]23c4c5ccc(O)c4O[C@H]2c2[nH]c4ccc(C(=O)O)cc4c2C[C@@]3(O)[C@H]1C5 (relative stereo) [Example V, 5,6,7,8,8a,9,14,14bβ-Octahydro-1,8aβ-dihydroxy-7-methyl-4,8(R,α)-methano-4bS*-benzofuro [2,3-a]pyrido [4,3-b]carbazole-11-carboxylic acid, monohydrochloride] | 810 nM | 660 nM | 1.2 | ED50 (mice; po, intragastric, mice, 30 min before PBQ, read-out: PBQ writhing assay ED50, I.G.): 3.4 mg/kg; ED50 (mice; [3]): 1.3 mg/kg
CCOC(=O)c1ccc2[nH]c3c(c2c1)C[C@@]1(O)[C@H]2Cc4ccc(O)c5c4[C@@]1(CCN2C)[C@H]3O5 (relative stereo) [Example VI, Ethyl 5,6,7,8,8a,9,14,14bβ-Octahydro1,8αP-dihydroxy-7-methyl-4,8(R,α)methano-4bS*-benzofuro [2,3-a]pyrido[4,3-b]carbazole-11-carboxylate, monohydrochloride] | – | – | 3.8 | IC50 (μ opioid receptor; read-out: Mean IC50 Value, μ, rat forebrain membranes, 3[H]-DAMGO 2.0 nM, 37° C., pH 7.4): 248 nM; IC50 (δ opioid receptor; [2]): 65 nM
Oc1ccc2c3c1O[C@H]1c4oc5ccccc5c4C[C@@]4(O)[C@@H](C2)N(CCc2ccccc2)CC[C@]314 (relative stereo) [Example VII, 6,7,8,14bβ-tetrahydro-7-(2-phenylethyl)-4,8(R,α)-methano-4bS*-5H-bisbenzofuro [3,2-e:2',3'-g]isoquinoline-1,8aβ(9H)-diol, hydrochloride] | – | 34.5 nM | – | inhibition at 1 µM (μ opioid receptor; read-out: Percent Displacement, μ at 1 μM): 35%
O=C(O)CN1CC[C@]23c4c5ccc(O)c4O[C@H]2c2oc4ccccc4c2C[C@@]3(O)[C@H]1C5 (relative stereo) [Example VIII, 5,6,8,8a,9,14bβ-Hexahydro-1,8aβ-dihydroxy-4,8 (R,α)-methano-4bS*-7H-bisbenzofuro[3,2-e:2',3'-g]isoquinoline-7-acetic acid, hydrochloride] | 4000 nM | 160 nM | 25 | –
CN1CC[C@]23c4c5ccc(O)c4O[C@H]2c2oc4ccccc4c2C[C@@]3(OCc2ccccc2)[C@H]1C5 (relative stereo) [Example X, 6,7,8,8a,9,14bβ-hexahydro-7-methyl-8aβ-(phenylmethoxy)-4,8(R,α)-methano-4bS*-5H-bisbenzofuro[3,2-e:2',3'-g]isoquinolin-1-ol, monohydrochloride] | 356 nM | 8 nM | 44 | –
CN1CC[C@]23c4c5ccc(O)c4O[C@H]2c2[nH]c4c(I)cccc4c2C[C@@]3(O)[C@H]1C5 (relative stereo) [Example XII, 5,6,7,8,14,14bβ-Hexahydro-13-iodo-7-methyl-4,8 (R,α)-methano-4bS*-benzofuro[2,3-a]pyrido[4,3-b]carbazole-1,8aβ(9H)-diol, monohydrochloride] | 101 nM | 9.5 nM | 10.6 | –
OCc1ccc(CN2CC[C@]34c5c6ccc(O)c5O[C@H]3c3oc5ccccc5c3C[C@@]4(O)[C@H]2C6)o1 (relative stereo) [Example XIII, 5,6,7,8,14,14bβ-Hexahydro-7-[[5-(hydroxymethyl)-2-furanyl]methyl]-4,8(R,α)-methano-4b S*-benzofuro[2,3-a]pyrido[4,3-b]carbazole-1,8aβ(9H)-diol, monohydrochloride] | – | ~100 nM | – | Mean IC50 Value, μ (μ opioid receptor; [1]): inactive
Oc1ccc2c3c1O[C@H]1c4oc5ccccc5c4C[C@@]4(O)[C@@H](C2)N(Cc2ccccc2)CC[C@]314 (relative stereo) [Example XVI, 6,7,8,14bβ-Tetrahydro-7-(2-phenylmethyl)-4,8 (R,α)-methano-4bS*-5H-bisbenzofuro [3,2-e:2',3'-g]isoquinoline-1,8aβ(9H)-diol] | – | – | – | Mean IC50 Value, μ (μ opioid receptor; [1]): inactive; inhibition at 0.05 µM (δ opioid receptor; read-out: Percent Displacement, δ at 50 nM): 50%
